Reference: US20250177364A1, “COMBINATION THERAPIES FOR BREAST CANCER” (Genentech, Inc., priority 2022, published 2025)

Experiments:
[1] = system: ER (ligand-binding domain of wild-type and mutant ER); details: cited from earlier work
[2] = system: ER-positive, HER2-negative EBC; details: neoadjuvant; cited from earlier work
HCC1419 cells = test: Anti-proliferative activity, growth-rate (GR) inhibition method, CyQUANT; format: cell-based; details: 6 days after drug treatment, control GR=1, giredestrant 0.3 μM, trastuzumab and pertuzumab 30 μg/ml each
Experimental: (§1) FIG. 3 depicts in vitro anti-proliferative activity of ER inhibition by giredestrant, and/or HER2 inhibition by the combination of trastuzumab and pertuzumab, assessed using the growth rate (GR) method in Example 1. Growth rate (GR) under control conditions is set to 1; lower growth rates equate to a greater anti-proliferative effect. Individual points reflect GR values at 0.3 μM giredestrant, and at […] trastuzumab and pertuzumab. Materials and Methods: ER+/HER2+ cell lines UACC-812, HCC1419 and ZR-75-30 cells were plated in 50 μL culture media in 384-well plates. Cells were incubated in humidified incubator overnight (37 degree, 5% CO2). Test materials were dispensed into 384-well plate on day 1; giredestrant was evaluated as a 9-point dose response (3-fold dose dilutions from a maximum concentration of 300 nM), and traztuzumab and pertuzumab were evaluated as a fixed dose at 30 μg/ml each. Fluorescence-based cell proliferation (CyQUANT®; ThermoFisher Scientific, Cat #C7026) readings were taken at day 1 to establish a baseline, and at 6 days following drug treatment. Analysis of the drug response was performed using the growth-rate (GR) inhibition method to avoid biases between slow and fast-growing lines (Hafner et al., Nat Methods 2016 June; 13 (6): 521-7)).

UACC-812 cells = test: as above; format: cell-based; details: 6 days after drug treatment, control GR=1, giredestrant 0.3 μM, trastuzumab and pertuzumab 30 μg/ml each
Experimental: as §1

ZR-75-30 cells = test: as above; format: cell-based; details: 6 days after drug treatment, control GR=1, giredestrant 0.3 μM, trastuzumab and pertuzumab 30 μg/ml each
Experimental: FIG. 3 depicts in vitro anti-proliferative activity of ER inhibition by giredestrant, and/or HER2 inhibition by the combination of trastuzumab and pertuzumab, assessed using the growth rate (GR) method in Example 1. Growth rate (GR) under control conditions is set to 1; lower growth rates equate to a greater anti-proliferative effect. Individual points reflect GR values at 0.3 μM giredestrant, and at […] trastuzumab and pertuzumab.
Materials and Methods: ER+/HER2+ cell lines UACC-812, HCC1419 and ZR-75-30 cells were plated in 50 μL culture media in 384-well plates. Cells were incubated in humidified incubator overnight (37 degree, 5% CO2). Test materials were dispensed into 384-well plate on day 1; giredestrant was evaluated as a 9-point dose response (3-fold dose dilutions from a maximum concentration of 300 nM), and traztuzumab and pertuzumab were evaluated as a fixed dose at 30 μg/ml each. Fluorescence-based cell proliferation (CyQUANT®; ThermoFisher Scientific, Cat #C7026) readings were taken at day 1 to establish a baseline, and at 6 days following drug treatment. Analysis of the drug response was performed using the growth-rate (GR) inhibition method to avoid biases between slow and fast-growing lines (Hafner et al., Nat Methods 2016 June; 13 (6): 521-7)). […]

[3] = system: ER-positive, HER2-negative ABC; details: 30 mg daily; previously treated patients; cited from earlier work
[4] = system: ER-positive BC cell lines; details: multiple ER-positive BC cell lines, including cells with ER mutations; cited from earlier work

Compound: C[C@@H]1Cc2c([nH]c3ccccc23)[C@@H](c2c(F)cc(NC3CN(CCCF)C3)cc2F)N1CC(F)(F)CO [giredestrant, 3-((1R,3R)-1-(2,6-difluoro-4-((1-(3-fluoropropyl)azetidin-3-yl)amino)phenyl)-3-methyl-1,3,4,9-tetrahydro-2H-pyrido[3,4-b]indol-2-yl)-2,2-difluoropropan-1-ol]
- Potency compared to fulvestrant, tamoxifen and other oral SERDs ([1]; Liang et al.): higher potency
- Potency of competitive binding to the ER ([1]; competes with estrogens): low nanomolar potency
- Ki67 suppression and complete cell cycle arrest versus anastrozole [2]: superior to anastrozole
- Growth rate (GR) value (HCC1419 cells): < 0.5
- Growth rate (GR) value (UACC-812 cells): < 0.5
- Growth rate (GR) value (ZR-75-30 cells): > 0.75
- Clinical activity [3]: promising signs of clinical activity
- Safety [3]: safe
- Inhibition of proliferation [4]: potently inhibits
